Read-outs that look alike come from different tables or passages of the source.
How the values were obtained:
[1] = biological target: HIV-1 IN recombinant protein (Human immunodeficiency virus type 1 group M subtype B, UniProt P12497); test: HIV-1 integrase 3′-processing gel-based assay; format: biochemical
[2] = test system: HIV-1; test: Antiviral activity against HIV-1 in activated primary human PBM cells; format: cell-based; conditions: read-out: EC50 (μM), concentration required to induce 50% of inhibition
[3] = test system: PBM cells; test: Cytotoxicity in normal PBM cells; format: cell-based, human
[4] = test system: CEM cells; test: Cytotoxicity in CEM cells; format: cell-based
[5] = test system: Vero cells; test: Cytotoxicity in Vero cells; format: cell-based

Compound | IC50 [1] [µM] | EC50 [2] [µM] | CC50 [3] [µM] | CC50 [4] [µM] | CC50 [5] [µM] | CC50 ([3]; read-out: CC50 (μM) PBM, PBM cells, concentration reducing cell growth by 50%) [µM] | CC50 ([4]; read-out: CC50 (μM) CEM, CEM cells, concentration reducing cell growth by 50%) [µM] | CC50 ([5]; read-out: CC50 (μM) VERO, VERO cells, concentration reducing cell growth by 50%) [µM]
CCOC(=O)c1c(-c2ccccc2)nc(=O)n(Cc2ccc(C(=O)/C=C(\O)C(=O)O)cc2)c1C [4a, 4-[4-[(5-ethoxycarbonyl-6-methyl-2-oxo-4-phenyl-pyrimidin-1-yl)methyl]phenyl]-2-hydroxy-4-oxo-but-2-enoic acid] | > 111 | – | – | – | – | – | – | –
Ethyl (Z)-1-(4-(3-hydroxy-4-isopropoxy-4-oxobut-2-enoyl)benzyl)-4-(4-methoxyphenyl)-2-oxo-6-phenyl-1,2-dihydropyrimidine-5-carboxylate [4′l] | – | 80.6 | > 100 | 25.3 | > 100 | – | – | –
Ethyl (Z)-6-ethyl-1-(4-(3-(3-hydroxy-4-isopropoxy-4-oxobut-2-enoyl)benzyl)benzyl)-2-oxo-4-phenyl-1,2-dihydropyrimidine-5-carboxylate [19′] | – | 36.8 | – | – | – | 47.6 | 8.9 | > 100

From PMC4629473 (European journal of medicinal chemistry, 2015)
